Results taken from publication PMC9029618, “Attenuation of Scopolamine-Induced Amnesia via Cholinergic Modulation in Mice by Synthetic Curcumin Analogs” (Molecules, 2022).
Read-outs that look alike come from different tables or passages of the source.

Tests used:
[1] = biological target: T1, AChE (Electrophorus electricus, UniProt O42275); assay: biochemical
T1 construct: The enzymes AChE and BuChE were obtained from electric eel and equine serum, respectively; from tissue; host or cells: electric eel
Procedure: (§1) The in vitro cholinesterase assay of the synthesized curcumin analogs were carried out according to the Ellman’s method with slight modification. The enzymes AChE and BuChE were obtained from electric eel and equine serum, respectively. […] The final concentrations of AChE 0.03 U/mL and 0.01 U/mL of BuChE were achieved. […] The experiment was started by adding 5 µL enzyme solutions to cuvette, then 205 µL test sample and 5 µL DTNB reagents were added. Substrate solution (5 µL) was added, and the solution mixture was kept in a water bath for 15 min at 30 °C.

[2] = biological target: T2, BuChE (Equus caballus, UniProt P81908); assay: biochemical
T2 construct: The enzymes AChE and BuChE were obtained from electric eel and equine serum, respectively; from tissue; host or cells: equine serum
Procedure: as §1

[3] = tested on: scopolamine-induced amnesic mice; assay: Elevated plus maze (EPM), scopolamine-induced amnesia; assay type: in vivo
Text: Elevated plus maze paradigm is an important behavioral model for evaluation of anti-amnesic potentials in mice. This apparatus comprised of two open and two closed arms with dimensions of 16 cm × 5 cm × 12 cm and elevated 25 cm from the floor on a wooden stand. The EPM was designed in plus shape from two acrylic sheets having a central platform with dimensions of 5 cm × 5 cm. Initially, mice were placed in one of the open arms in such a way that it was directed away from the central platform. Then TLT was recorded after the mice moved to the closed arm, with their four legs from the open arm and then the mice were returned to their home cage. The time of exploration of the apparatus for each animal was 90 s. […] Reduction of TLT indicated memory-enhancing effect of the test samples. The inflexion ratio (IR) was calculated as: IR=L0−L1/L0 where L1 presents the initial transfer latency (s), and L0 is the retention transfer latency (s).

[4] = tested on: scopolamine-induced amnesic mice; assay: Novel object recognition test (NORT), scopolamine-induced amnesia; assay type: in vivo
Procedure: In this study, the memory-enhancing potentials of synthesized compounds were determined using novel object recognition test mice model. Dimensions of the apparatus were 40 cm × 40 cm × 30 cm and designed from Plexiglass in a box shape. After acclimatization, the mice were habituated with the apparatus for 2–3 min one day before the test. Initially, in the sample phase, two identical objects were placed in the two corners of the apparatus and the mice were allowed to freely explore the apparatus. The objects in the apparatus were explored by each animal either by touching the objects or keeping their noses within 2 cm of them. […] Mice were allowed again to freely explore both the objects in a similar way as in sample phase, and the time spent by each animal exploring the novel and familiar object (F) was recorded.
The following formula was used for calculation of discrimination index. D1=N—F /N+F
D1 = discrimination index; N = novel object; F = familiar object

[5] = tested on: scopolamine-induced amnesic mice; assay: Y-maze test, scopolamine-induced amnesia
Procedure: A total of sixteen groups of mice, with six in each group, were used in the experiment. Vehicle treated group (Normal control group) were administered 10 mL/kg (p.o) of normal saline. […] Sample treatment groups were administered 7.5 mg/kg and 15 mg/kg (p.o) of synthesized compounds, respectively.
The dimensions of the arms were 15.5 cm high, 6 cm wide, 20 cm long and connected with each other with an angle of 120°. This test was conducted for a 5 min duration for each animal. The order and number of arm entries made by each animal after placing in one arm were recorded. Complete arm entry in any given arm was considered to be when the hind paws were completely inside, and the alternation was the consecutive arm entries into three different arms by each mouse. Ethanol 70% v/v solution was used to clean the Y-maze arena to avoid olfactory cues between each test. […] Mice were freely allowed to explore the objects when they were initially placed at the center of the apparatus. The formula was used to calculate the %SAP by recording the same arm returns (SAR), alternate arm returns (AAR) and the number of arm entries.

[6] = biological target: T3, AChE activity in the hippocampi of mice brains (Mus musculus, UniProt P21836); assay type: in vivo; details: ex vivo, vs scopolamine treated group, n = 6
T3 construct: from tissue; host or cells: mouse bilateral hippocampus homogenate, supernatant
T3 sequence (P21836 32-614): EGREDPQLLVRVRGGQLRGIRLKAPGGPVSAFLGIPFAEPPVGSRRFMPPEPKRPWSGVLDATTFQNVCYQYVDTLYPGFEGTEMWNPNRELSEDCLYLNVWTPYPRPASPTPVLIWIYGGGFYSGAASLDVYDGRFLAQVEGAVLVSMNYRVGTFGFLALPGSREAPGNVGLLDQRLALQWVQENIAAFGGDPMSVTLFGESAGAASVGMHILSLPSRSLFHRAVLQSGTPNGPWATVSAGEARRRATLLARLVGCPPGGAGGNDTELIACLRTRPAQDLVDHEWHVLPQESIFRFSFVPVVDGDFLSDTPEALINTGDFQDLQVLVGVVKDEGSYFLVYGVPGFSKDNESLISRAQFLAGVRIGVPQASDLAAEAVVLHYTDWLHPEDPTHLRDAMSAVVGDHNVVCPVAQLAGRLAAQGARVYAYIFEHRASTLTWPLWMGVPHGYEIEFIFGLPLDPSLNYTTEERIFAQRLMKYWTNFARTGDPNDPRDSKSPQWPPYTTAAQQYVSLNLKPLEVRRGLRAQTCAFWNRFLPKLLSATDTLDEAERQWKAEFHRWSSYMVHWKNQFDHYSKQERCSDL
Procedure: (§2) After the behavioral study, the mice were sacrificed by decapitation, providing a quick and painless death by cervical dislocation. The isolated brain of each animal in chilled phosphate buffer saline was subjected into biomarker assays using AChE and BuChE enzymes.
Mice were sacrificed within 24 h of the behavior study; brains were dissected and stored at −80 °C. […] Supernatant was used for the measurement of cholinesterase (AChE and BuChE) activity.
Acetylcholine/Acetyl cholinesterase assay Kit was used for the determination of AChE activity, according to the standard procedure. The assay was carried out using 96-well plate, and every reaction comprised of 100 µL sample, 200 µM Amplex Red reagent, 50 µM of acetylcholine, 1 U/mL horseradish peroxidase (HRP) and 0.1 U/mL choline oxidase in buffer solution. Incubation period for the reaction mixture was 20 min at room temperature in the dark. The fluorescence intensity at 560 nm excitation and 580 nm emission wavelength was measured.

[7] = biological target: T4, BuChE activity in the hippocampi of mice brains (Mus musculus, UniProt Q03311); assay: Ex vivo BuChE activity in the brain hippocampus; details: vs scopolamine treated group, n = 6
T4 construct: from tissue; host or cells: mouse bilateral hippocampus homogenate, supernatant
Procedure: as §2
Mice were sacrificed within 24 h of the behavior study; brains were dissected and stored at −80 °C. The bilateral hippocampus was homogenized before the assay into volumes of 0.01 M phosphate buffer (2.7 mM KCl, 137 mM NaCl, 2 mM KH2PO4, 10 mM Na2HPO4) and centrifuged at 4 °C for 30 min at 12,000× g. Supernatant was used for the measurement of cholinesterase (AChE and BuChE) activity.
Butyrylcholinesterase (BuChE) activity of the synthesized compounds were measured according to Ellman method with slight modification. BuSCh was hydrolyzed by BuChE and choline iodide produced, which reacted with DNTB, and then the production of TNB. The TNB was quantitated by calorimetry that indicated the BuChE activity. BuChE assay was accomplished in 96-well plate and every reaction mixture contained 40 µL sample, 80 µL DTNB (0.25 mg/mL) and 70 µL BuSCh (7.5 mM). The absorbance was determined at 37 °C after incubation for 60 min.

[8] = AChE from electric eel, Ellman's method, n = 3, read-out: AChEI (IC50 (nM))
[9] = BuChE from equine serum, Ellman's method, n = 3, read-out: BuChEI (IC50 (nM))
[10] = 7.5 mg/kg p.o. 7 days, scopolamine 1 mg/kg i.p.
[11] = 15 mg/kg p.o. 7 days, scopolamine 1 mg/kg i.p.
[12] = long-term memory (after 24 h), 7.5 mg/kg
[13] = long-term memory (after 24 h), 15 mg/kg
[14] = short-term memory, donepezil 2 mg/kg
[15] = short-term memory, test phase, donepezil 2 mg/kg

T1 sequence (O42275 24-633): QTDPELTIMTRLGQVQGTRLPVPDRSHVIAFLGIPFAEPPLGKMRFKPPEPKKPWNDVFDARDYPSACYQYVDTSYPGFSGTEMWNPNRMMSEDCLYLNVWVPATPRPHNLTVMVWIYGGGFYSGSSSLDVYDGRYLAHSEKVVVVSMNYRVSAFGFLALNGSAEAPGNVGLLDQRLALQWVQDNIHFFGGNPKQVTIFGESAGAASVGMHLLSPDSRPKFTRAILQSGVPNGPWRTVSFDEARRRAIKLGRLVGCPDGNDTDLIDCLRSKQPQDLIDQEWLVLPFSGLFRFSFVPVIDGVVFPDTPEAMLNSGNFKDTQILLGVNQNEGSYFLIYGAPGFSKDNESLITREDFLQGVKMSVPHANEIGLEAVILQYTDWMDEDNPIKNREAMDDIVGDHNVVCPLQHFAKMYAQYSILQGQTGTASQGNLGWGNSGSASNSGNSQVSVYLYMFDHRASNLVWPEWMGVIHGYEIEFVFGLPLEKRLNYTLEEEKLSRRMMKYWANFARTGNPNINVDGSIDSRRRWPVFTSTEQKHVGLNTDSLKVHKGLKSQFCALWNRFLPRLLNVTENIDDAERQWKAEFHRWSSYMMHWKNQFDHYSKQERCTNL
T2 sequence (P81908 whole entry): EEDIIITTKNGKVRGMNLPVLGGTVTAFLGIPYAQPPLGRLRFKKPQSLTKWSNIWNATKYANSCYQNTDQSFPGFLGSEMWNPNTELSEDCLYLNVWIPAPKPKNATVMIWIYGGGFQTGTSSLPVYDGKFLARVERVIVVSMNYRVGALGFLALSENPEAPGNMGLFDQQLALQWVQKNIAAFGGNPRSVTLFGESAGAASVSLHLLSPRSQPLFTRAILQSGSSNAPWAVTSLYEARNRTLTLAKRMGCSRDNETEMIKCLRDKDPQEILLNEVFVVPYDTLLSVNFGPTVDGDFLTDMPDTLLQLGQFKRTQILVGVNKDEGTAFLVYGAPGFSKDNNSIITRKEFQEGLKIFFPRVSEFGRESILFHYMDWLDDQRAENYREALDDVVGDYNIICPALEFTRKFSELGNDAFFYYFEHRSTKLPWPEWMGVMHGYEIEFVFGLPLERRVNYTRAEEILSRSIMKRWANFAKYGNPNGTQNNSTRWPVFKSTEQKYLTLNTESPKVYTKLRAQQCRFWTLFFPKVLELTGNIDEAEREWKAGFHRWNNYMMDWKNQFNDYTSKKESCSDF
T4 sequence (Q03311 30-603): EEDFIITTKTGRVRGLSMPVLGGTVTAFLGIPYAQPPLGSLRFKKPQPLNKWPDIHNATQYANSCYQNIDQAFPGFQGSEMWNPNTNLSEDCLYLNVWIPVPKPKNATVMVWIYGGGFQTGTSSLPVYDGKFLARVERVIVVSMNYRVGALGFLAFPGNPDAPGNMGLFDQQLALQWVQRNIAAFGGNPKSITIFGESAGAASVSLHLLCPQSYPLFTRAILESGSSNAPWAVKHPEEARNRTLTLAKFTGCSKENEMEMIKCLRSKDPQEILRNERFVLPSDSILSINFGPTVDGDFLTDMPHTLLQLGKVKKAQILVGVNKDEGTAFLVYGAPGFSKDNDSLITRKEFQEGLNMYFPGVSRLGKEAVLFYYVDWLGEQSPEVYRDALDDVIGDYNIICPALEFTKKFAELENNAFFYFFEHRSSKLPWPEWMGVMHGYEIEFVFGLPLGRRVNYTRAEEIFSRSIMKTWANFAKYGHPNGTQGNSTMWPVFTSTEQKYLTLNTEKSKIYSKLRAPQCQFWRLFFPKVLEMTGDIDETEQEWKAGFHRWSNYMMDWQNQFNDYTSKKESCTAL

Row | Compound | IC50 [1, 8] [nM] | IC50 [2, 9] [nM] | effect on TLT vs amnesic group [3, 10] | effect on TLT vs amnesic group [3, 11] | discrimination index (DI) [4, 12] | discrimination index (DI) [4, 13] | discrimination index (DI) ([4]; short-term memory, 7.5 mg/kg) | discrimination index (DI) ([4]; short-term memory, 15 mg/kg) | % spontaneous alternation performance (% SAP) [5, 10] | % spontaneous alternation performance (% SAP) [5, 11] | further results
1 | O=C(/C=C/c1ccccc1)CC(=O)/C=C/c1ccccc1 [Compound 1a, (1E,6E)-1,7-diphenylhepta-1,6-diene-3,5-dione] | 2620 | 5350 | non-significant | non-significant | no significant change | no significant change | 54.53% | 55.10% | poor response | poor response | –
2 | Cc1ccc(/C=C/C(=O)CC(=O)/C=C/c2ccc(C)cc2)cc1 [Compound 1b, (1E,6E)-1,7-di-p-tolylhepta-1,6-diene-3,5-dione] | 734 | 2160 | non-significant | poor response | 52.45% | 53.61% | 55.68% | 57.47% | poor response | poor response | effect on scopolamine-increased AChE activity in hippocampus [6]: markedly reduced the increased activity of AChE
3 | COc1ccc(/C=C/C(=O)CC(=O)/C=C/c2ccc(OC)cc2)cc1 [Compound 1c, (1E,6E)-1,7-bis(4-methoxyphenyl)hepta-1,6-diene-3,5-dione] | 467 | 1360 | reduced TLT | reduced TLT | 60.58% | 62.28% | 60.16% | 61.25% | 47.16 ± 2.77% | 62.33 ± 184% | effect on scopolamine-increased AChE activity in hippocampus [6]: markedly reduced the increased activity of AChE; effect on scopolamine-increased BuChE activity in hippocampus [7]: decreased the increased BuChE activity
4 | CN(C)c1ccc(/C=C/C(=O)CC(=O)/C=C/c2ccc(N(C)C)cc2)cc1 [Compound 1e, (1E,6E)-1,7-bis(4-(dimethylamino)phenyl)hepta-1,6-diene-3,5-dione] | 3270 | 6640 | non-significant | non-significant | no significant change | no significant change | no promising potential | no promising potential | non-significant | non-significant | –
5 | O=C(/C=C/c1ccc([N+](=O)[O-])cc1)CC(=O)/C=C/c1ccc([N+](=O)[O-])cc1 [Compound 1f, (1E,6E)-1,7-bis(4-nitrophenyl)hepta-1,6-diene-3,5-dione] | – | – | non-significant | non-significant | no significant change | no significant change | no promising potential | no promising potential | non-significant | non-significant | IC50 [1]: 5840 nM; IC50 [2]: 9660 nM
6 | COc1cc2c(cc1OC)C(=O)C(CC1CCN(Cc3ccccc3)CC1)C2 (stereo not drawn) [Donepezil, reference compound] | – | – | – | – | – | – | – | – | – | – | transfer latency time (TLT) ([3]; donepezil 2 mg/kg p.o. 7 days, scopolamine 1 mg/kg i.p., p < 0.001 vs amnesic group): 34.57 ± 1.93 s; % DI, familiar object [4, 14]: 32.32%; % DI, novel object [4, 14]: 65.26%; time spent exploring the familiar object [4, 15]: 11.49 ± 1.39 s; time spent exploring the novel object [4, 15]: 21.59 ± 1.44 s
7 | CN1[C@@H]2C[C@@H](OC(=O)[C@H](CO)c3ccccc3)C[C@H]1[C@@H]1O[C@@H]12 [Scopolamine] | – | – | – | – | – | – | – | – | – | – | TLT vs vehicle treated group ([3]; scopolamine 1 mg/kg i.p. alone (amnesic group)): significantly higher transfer latency time; % spontaneous alternation performance (% SAP) ([5]; scopolamine 1 mg/kg i.p. alone (amnesic group), normal controls 70.16 ± 4.58): 37.66 ± 3.94%
